# Reference: publication PMC4919066 (PLoS Pathogens, 2016)
# Where a name gives a salt, the structure may show the parent alone.
# Columns and labels:
# [1] = tested on: pp28-luciferase HCMV Towne; test: Second cycle infection luciferase assay; assay type: cell-based, Human Cytomegalovirus; settings: emetine 75 nM
# Experimental: (§1) Human Foreskin Fibroblasts (HFFs) passage 12–16 (ATCC, CRL-2088) and mouse embryonic fibroblasts (MEFs) passage 9–14 (ATCC, CRL-1658) were grown in Dulbecco's Modified Eagle Medium (DMEM) containing 10% fetal bovine serum (FBS) (Gibco, Carlsbad, CA) in a 5% CO2 incubator at 37°C. Infection with HCMV or HSV was performed in HFFs, and infection with mouse CMV was performed in MEFs. For HCMV, cells were seeded in either a 96-well plate or 100 mm culture plates (Corning Costar, Sigma Aldrich) at 0.5 or 2 million cells /plate. Following 90 minute adsorption, media was removed and cells were washed with PBS. Media containing 4% FBS and compounds were added to each well. Infected treated HFFs were collected at 72 hpi and lysates were assayed for luciferase activity using a luciferase assay kit (Promega, Madison, WI) on GloMax-Multi+ Detection System (Promega). In second cycle assays, supernatants were collected from all conditions of the first cycle at 96 hpi and used for infection of fresh HFFs in 96-well plates. Luciferase activity was measured 72 h following second cycle infection. For HSV1-KOS/Dlux/oriS, a luciferase assay was performed at 24 hpi. […] After incubation at 37°C for 10 days (for HCMV), 3 days for MCMV or 2 days (for HSV), the overlay was removed and plaques were counted after crystal violet staining.
# RPS14 = RPS14 (Homo sapiens, UniProt P62263); test: RPS14 nuclear localization, confocal microscopy; assay type: cell-based; settings: emetine 75 nM, infected high-density cells
# Experimental: Cells were fixed with 3.7% paraformaldehyde for 20 min at room temperature, permeabilized with ice cold methanol for 10 min at -20°C and blocked with 5% bovine serum albumin in 0.5% Tween-20 for 20 min at room temperature. Cells were incubated with primary antibodies at 4°C overnight, washed and incubated with fluorescently-labeled secondary antibodies for 2 h at 37°C. Fluorescence microscopy was performed using a confocal laser scanning microscope (Nikon EZ C1). All images were captured at 60X magnification and processed under identical conditions with constant parameters (including scan speed and excitation and emission wavelengths) using Nikon EZ C1 software. Data analysis (percent nuclear localization) was performed by NIS-Elements software (Nikon) for a minimum of 40 cells in the high-density and 25 cells in the low-density samples from two fields per condition.
# [2] = tested on: pp28-luciferase HCMV Towne; test: Drug combination with GCV, Bliss model; assay type: cell-based, Human Cytomegalovirus; settings: emetine combined with GCV, luciferase assay
# Experimental: The combined inhibitory effect of compounds on HCMV replication was determined in infected HFFs as previously reported. The Bliss model, in which drug combination represents the product of two probabilistically independent events, was used for analysis.
# p21 = test: qRT-PCR for p21; assay type: cell-based, human; settings: emetine 75 nM, infected high-density cells
# Experimental: Total RNA was isolated from cultured cells using RNeasy Mini kit (Qiagen). RevertAid first strand cDNA synthesis kit (Fermentas life sciences, Cromwell Park, MD) was used to synthesize first strand cDNA from total RNA using oligo-dT primers. Negative RT reactions were included to ensure the specificity of qRT-PCR reactions. Synthesis of first strand cDNA from mRNA template was carried out at 42°C for 1 h. Quantitative RT-PCR was performed in triplicates using specific primers for p21 (F: 5’ […] 3’; R: 5’ […] 3’) and SYBR green (Fermentas life science) with two-step cycling protocol (95°C for 15 s, 60°C for 1 min). GAPDH (F: 5’ […] 3’; R: 5’ […] 3’) was used as the internal control.
# [3] = tested on: GCV-resistant pp28-luciferase Towne; test: GCV-resistant pp28-luciferase HCMV luciferase assay; assay type: cell-based, Human Cytomegalovirus; settings: Human betaherpesvirus 5, read-out: Mean EC50 ± SD
# Experimental: The pp28-luciferase HCMV Towne and a GCV-resistant pp28-luciferase were used. The recombinant viruses express luciferase under the control of the late CMV gene promoter, pp28. Luciferase expression is activated 48–72 hours post infection (hpi). The recombinant viruses provide a highly-sensitive reporter system which correlates with plaque reduction assay. The Towne HCMV strain (ATCC VR-977) was used for plaque reduction, quantitative reverse transcriptase PCR (qRT-PCR), and immunoprecipitation assays. Human herpes virus strains were: luciferase HSV1- KOS/Dlux/oriS [52] and clinical isolates of HSV2. The clinical isolates were provided by the clinical microbiology laboratory with no identifiers that can link to a specific subject. Murid Herpesvirus (MCMV: ATCC VR-1399) was used for infection of mouse embryonic fibroblasts (MEFs) and mice.
# Human Foreskin Fibroblasts (HFFs) passage 12–16 (ATCC, CRL-2088) and mouse embryonic fibroblasts (MEFs) passage 9–14 (ATCC, CRL-1658) were grown in Dulbecco's Modified Eagle Medium (DMEM) containing 10% fetal bovine serum (FBS) (Gibco, Carlsbad, CA) in a 5% CO2 incubator at 37°C. […] Luciferase activity was measured 72 h following second cycle infection. […] After incubation at 37°C for 10 days (for HCMV), 3 days for MCMV or 2 days (for HSV), the overlay was removed and plaques were counted after crystal violet staining.
# HCMV = test: Anti-HCMV activity in RPS14 knockdown cells (sh-RPS14); assay type: cell-based, Human Cytomegalovirus; settings: emetine 75 nM, luciferase, plaque reduction, viral proteins at 72 hpi
# Experimental: as §1, with “In second cycle assays, supernatants were collected from all conditions of the first cycle at 96 hpi and used for infection of fresh HFFs in 96-well plates.” left out, “infection.” for “infection. For HSV1-KOS/Dlux/oriS, a luciferase assay was performed at 24 hpi.”
# Human TRC lentiviral shRNA constructs (Sigma-Aldrich) were used for RPS14 knockdown (KD) in HFFs. […] Control HFFs and RPS14 KD HFFs were counted and equal number of cells was plated prior to infection or treatment.
# [4] = Cell viability, MTT-based colorimetric assay; settings: human, non-infected human foreskin fibroblasts (HFFs), cell viability after 72 h
# Experimental: Cell viability was determined by an MTT-based colorimetric assay (Sigma-Aldrich), and performed at the same time points as the antiviral assay.
smiles,measurement,setting,value
"CC[C@H]1CN2CCc3cc(OC)c(OC)cc3[C@@H]2C[C@@H]1C[C@H]1NCCc2cc(OC)c(OC)cc21 [emetine, emetine dihydrochloride hydrate]","increase in pp28-luciferase activity, second cycle infection, compared to infected control",[1]; 0.5 million cells/plate,1.5 fold
same,"pp28-luciferase activity, second cycle infection, compared to infected control",[1]; 1 and 2 million cells/plate,near complete inhibition
same,nuclear localization of RPS14,RPS14; 24 hpi,66%
same,nuclear localization of RPS14,RPS14; 72 hpi,11%
same,HCMV inhibition in combination with GCV,[2],synergistic
same,increase in p21 mRNA,p21; 24 hpi,5.4 fold
same,increase in p21 mRNA,p21; 72 hpi,6.7 fold
same,EC50,[3],0.038 µM
same,HCMV inhibition in high-density sh-RPS14 cells,HCMV,unable to inhibit HCMV
same,CC50 at 72 h,[4],8 ± 0.56 µM
